Laboratory results reported in US10017542B2, “Antimicrobial peptides and methods of use thereof” (priority 2015, dated 2018).
Where a SMILES comes first, the peptide text is derived from it. [ ]: non-standard residue; d: D form. Orn = NCCC[C@H](N)C(=O)O

Tests used:
B. thailandensis = test: microbe, parasite or virus in culture; details: Burkholderia thailandensis, 3 h
E. coli = details: 24 h
Protocol: (§1) Measurement of antimicrobial and anti-fungal activity was determined by a standard micrometer dilution method. Briefly, cells were grown overnight in media specified for each strain, and were diluted in the same media. Serial dilutions of the peptides were added to microtiter plates in a volume of 50 ul, followed by the addition of 50 ul of bacteria or fungi, 5×10^5 CFU/ml. Plates were incubated at 37 degrees for 24 hours and the Minimum Inhibitory Concentrations (MICs) were determined as the lowest peptide concentration that inhibited 50% of bacterial growth.

Pseudomonas Xen5 = test: Antibacterial activity, microtiter dilution method; assay type: cell-based; details: 24 hours, 37 degrees
E. cloaca = details: 24 h
Protocol: as §1

A. baumanii = details: 24 h
Protocol: (§2) Briefly, cells were grown overnight in media specified for each strain, and were diluted in the same media. Serial dilutions of the peptides were added to microtiter plates in a volume of 50 ul, followed by the addition of 50 ul of bacteria or fungi, 5×10^5 CFU/ml. Plates were incubated at 37 degrees for 24 hours and the Minimum Inhibitory Concentrations (MICs) were determined as the lowest peptide concentration that inhibited 50% of bacterial growth.

[1] = system: bacterial isolates of Table 7 (A. baumanii, E. coli, E. cloaca, Pseudomonas, Staphylococcus)
Protocol: as §2

[2] = system: fungal isolates of Table 8 (C. albicans, C. krusei, C. tropicalis)
Protocol: as §1

C. krusei = details: 24 h
Protocol: as §1

C. tropicalis = details: 24 h
Protocol: as §1

[3] = system: all bacteria tested in Table 9; test: In vitro bactericidal activity screening, average across all bacteria; assay type: cell-based; details: average value across all bacteria
[4] = system: Escherichia coli strain (E.c.); test: In vitro bactericidal activity screening, endpoint titration; details: last concentration giving greater than two-logs reduction in CFU vs. saline control
[5] = system: Fusobacterium nucleatum strain 1594 (F.n.); test: as above; details: last concentration giving greater than two-logs reduction in CFU vs. saline control
[6] = system: Burkholderia cepacia strain Toronto (B.c.); test: as above; details: last concentration giving greater than two-logs reduction in CFU vs. saline control, 10^6 CFU/ml, 37° C.
[7] = system: Pseudomonas aeruginosa strain (P.a.); test: as above; details: last concentration giving greater than two-logs reduction in CFU vs. saline control
[8] = system: Actinobacillus actinomycetemcomitans strain A7154 (A.a.); test: as above; details: last concentration giving greater than two-logs reduction in CFU vs. saline control

| Molecule | Two-log Reduction Concentration Ave. [3] [μM] | Two-log Reduction Concentration [4] [μM] | Two-log Reduction Concentration [5] [μM] | Two-log Reduction Concentration [6] [μM] | Two-log Reduction Concentration [8] [μM] | also measured |
| --- | --- | --- | --- | --- | --- | --- |
| CC(C)(O/N=C(\C(=O)N[C@@H]1C(=O)N2C(C(=O)[O-])=C(C[n+]3ccccc3)CS[C@H]12)c1csc(N)n1)C(=O)O [Ceftazidime] |  |  |  |  |  | EC50 (B. thailandensis): 39.1 µM |
| CC[C@H](C)[C@H](NC(=O)[C@H](CCCNC(=N)N)NC(=O)[C@H](C)NC(=O)[C@H](CC(C)C)NC(=O)[C@@H](N)CCCNC(=N)N)C(=O)N[C@H](C(=O)NCC(=O)NCC(=O)N[C@@H](Cc1ccccc1)C(=O)N[C@@H](C)C(=O)N[C@@H](CCCN)C(=O)N[C@@H](CCCN)C(=O)N[C@@H](Cc1ccccc1)C(=O)N[C@@H](C)C(=O)N[C@@H](CCCN)C(=O)N[C@@H](CCCN)C(=O)N[C@@H](Cc1ccccc1)C(=O)N[C@@H](CCCN)C(=O)N[C@@H](CCCN)C(=O)N[C@@H](Cc1ccccc1)C(=O)N[C@@H](C)C(=O)N[C@@H](CCCN)C(=O)N[C@@H](CCCN)C(=O)N[C@@H](Cc1ccccc1)C(=O)N[C@@H](C)C(=O)N[C@@H](CCCN)C(=O)N[C@@H](Cc1ccccc1)C(=O)N[C@@H](C)C(=O)N[C@@H](Cc1ccccc1)C(=O)N[C@@H](C)C(=O)N[C@@H](Cc1ccccc1)C(=O)O)C(C)C [RP500, RLARIVGGFAOOFAOOFOOFAOOFAOFAFAF] (H-RLARIVGGFA[Orn][Orn]FA[Orn][Orn]F[Orn][Orn]FA[Orn][Orn]FA[Orn]FAFAF-OH; N-terminus and C-terminus assumed) |  |  |  |  |  | IC50 (E. coli): 3.8 µM; IC50 (Pseudomonas Xen5): 0.5 µM; IC50 (E. cloaca): 7.6 µM; IC50 (A. baumanii): 7.6 µM; IC50 [1]: 5.3 µM |
| CSCC[C@H](NC(=O)[C@H](Cc1c[nH]c2ccccc12)NC(=O)[C@H](CC(C)C)NC(=O)[C@H](C)N)C(=O)N[C@H](C(=O)N[C@@H](CC(C)C)C(=O)N[C@@H](CCCN)C(=O)N[C@@H](CCCN)C(=O)N[C@@H](CCCN)C(=O)N[C@H](C(=O)N[C@@H](CC(C)C)C(=O)N[C@@H](CCCN)C(=O)N[C@@H](C)C(=O)N[C@@H](CCCN)C(=O)N[C@@H](C)C(=O)N[C@@H](CCCN)C(=O)N[C@@H](C)C(=O)N[C@@H](CC(C)C)C(=O)N[C@@H](CC(N)=O)C(=O)N[C@@H](C)C(=O)N[C@H](C(=O)N[C@@H](CC(C)C)C(=O)N[C@H](C(=O)NCC(=O)N[C@@H](C)C(=O)N[C@@H](CC(N)=O)C(=O)N[C@@H](C)C(=O)O)C(C)C)C(C)C)C(C)C)[C@@H](C)O [RP507, ALWMTLOOOVLOAOAOALNAVLVGANA] (H-ALWMTL[Orn][Orn][Orn]VL[Orn]A[Orn]A[Orn]ALNAVLVGANA-OH; N-terminus and C-terminus assumed) |  |  |  |  |  | IC50 [2]: 43.3 µM; IC50 (C. krusei): 20 µM; IC50 (C. tropicalis): 40 µM |
| FAFAFKAFKKAFKKFKKAFKKAFGPGRFAKKFAKKFKKFAKKFAKFAFAF [RP-433] | 0.46 | 0.63 | 1.25 | 0.12 | 0.10 | Two-log Reduction Concentration [7]: 0.90 μM |
| FARKFLKKFKRFAKKFVRFAFAF [SEQ ID NO: 6] | 1.67 | 0.63 | 3.75 | 1.25 | 0.40 |  |
